Reference: publication PMC9841525, “Chemical Blockage of the Mitochondrial Rhomboid Protease PARL by Novel Ketoamide Inhibitors Reveals Its Role in PINK1/Parkin-Dependent Mitophagy” (Journal of Medicinal Chemistry, 2022)
pIC50: −log10 of the molar value. *1 amine or outer side, *2 acyl side, *3 side chain or, on linkers, in order; H or OH if unused. Where a SMILES comes first, the peptide text is derived from it. [ ]: non-standard residue; d: D form. The star is where a group is joined. X2 = O=C(C(=O)[*:2])[C@H](Cc1ccccc1)N[*:1]; NH(4-phenylbutyl) = c1ccc(CCCCN*)cc1; X1 = C[C@H](N[*:1])C(=O)C(=O)[*:2]; AMC = Cc1cc(=O)oc2cc(N*)ccc12

Columns and labels:
Parkin [1] = experiment: Parkin recruitment to mitochondria, subcellular fractionation and immunoblot; format: cell-based, human; settings: HEK293 T-REx PINK1 cells, HA-Parkin-IRES-GFP; 5 μM compound 5, CCCP 10 μM or Antimycin A 30 μM
Protocol: (§1) Inducible stable Flp-In HEK293 T-REx cells expressing PINK1 were described previously.[33] HEK293 T-REx PINK1 and HEK293T cells were grown in DMEM (Gibco) supplemented with 10% (v/v) fetal bovine serum (ThermoFisher), 1% (v/v) GlutaMAX (Gibco), 1% (v/v) sodium pyruvate (Gibco), 125 μg/mL hygromycin (Invitrogen), and 10 μg/mL blasticidin (Gibco) or DMEM supplemented with 10% (v/v) fetal bovine serum, respectively, at 37 °C in 5% (v/v) CO2. For microscopy, cells were seeded on poly-L-lysine (Sigma)-coated slides. Transient plasmid transfections were performed using 25 kDa linear polyethylenimine (Polysciences). Plasmid (100 ng) encoding HA-Parkin-IRES-GFP, mito-mCherry or Parkin-mEGFP, or 500 ng plasmid encoding PGAM5-FLAG were used per 6-well. Total transfected DNA was 2 μg/well. For siRNA transfection, 2 × 10^5 cells were seeded per 6-well and on the next day transfected with 20 nM siRNA-oligonucleotide using lipofectamine RNAiMAX (ThermoFisher). Cells were analyzed 27 h post-transfection or five days post-siRNA-transfection. HEK293 T-REx PINK1 cells were induced with 0.3 μg/mL doxycycline for 24 h before further processing. Hoechst staining (1 μg/mL) was done immediately before adding treatment to the cells. Treatments were administered for the indicated times before processing; CCCP (Sigma) was always used as 10 μM for 3 h and Antimycin A (Sigma) as 30 μM for 3 h.
Unless mentioned otherwise, all steps were performed at 4 °C. For subcellular fractionation to separate cellular content into cytosolic and mitochondrial fractions, cells were washed with PBS, harvested in PBS-EDTA (1 mM EDTA, 0.2 g/L D-glucose), and centrifuged at 500 × g for 5 min. […]
For immunoblot analysis in other cases, cells were either processed as described above or washed with PBS and directly lysed with Tris-glycine SDS-PAGE sample buffer and heated for 15 min at 65 °C. […] For quantification, ImageJ was used (http://rsb.info.nih.gov/ij/). […]

Parkin [2] = experiment: Parkin recruitment to mitochondria and mitochondrial morphology, fluorescence microscopy; format: cell-based, human; settings: HEK293 T-REx PINK1 cells, 3 h; 5 μM compound 5, CCCP or Antimycin A, vs DMSO
Protocol: as §1
For fixation, cells were incubated for 15 min with 4% formaldehyde (16% formaldehyde diluted in PBS, Thermo Scientific) and washed in PBS. The cover glasses were mounted with Fluoromount-G (Southern Biotech) on microscope slides. […] Parkin recruitment events to the mitochondria were counted by hand throughout each z-stack and cell. […] JC-1 images were handled as summed intensity z-stack projections, as well as subjected to flatfield correction and subtraction of background before measuring the fluorescence levels normalized to the number of cell nuclei. The fluorescence intensity ratio between the red and green signal was calculated and compared to DMSO as a ratio of 1. Data were evaluated using Excel and GraphPad Prism 6.

PARL [3] = biological target: T1, PARL (Homo sapiens, UniProt Q9H300); experiment: In vitro assay for PARL activity, cleavage of AMC substrates by liposome-embedded PARL; format: biochemical; parameters: hexahistidine tag (C); made in house; host or cells: continuous-exchange cell-free expression in bacterial lysates with T7 polymerase (CUBE biotech), into liposomes; settings: mature PARL in liposomes, S277A catalytic mutant as control
T1 sequence (Q9H300 53-379): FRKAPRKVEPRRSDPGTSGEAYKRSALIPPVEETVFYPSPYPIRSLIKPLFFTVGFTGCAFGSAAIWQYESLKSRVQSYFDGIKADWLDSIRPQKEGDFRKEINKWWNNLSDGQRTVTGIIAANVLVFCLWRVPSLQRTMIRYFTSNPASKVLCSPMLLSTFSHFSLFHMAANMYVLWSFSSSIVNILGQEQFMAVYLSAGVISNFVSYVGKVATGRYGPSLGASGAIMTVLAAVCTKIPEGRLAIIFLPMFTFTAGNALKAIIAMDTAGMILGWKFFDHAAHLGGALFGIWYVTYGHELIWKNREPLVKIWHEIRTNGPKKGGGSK
Protocol: Liposome preparation and cell-free protein expression of PARL were carried out essentially as described previously.[27] Liposomes resembling the lipid composition of the IMM were prepared by mixing 40% DOPC (1,2-dioleoyl-sn-glycero-3-phosphocholine), 33.8% DOPE (1,2-dioleoyl-sn-glycero-3-phosphoethanolamine), 18% CL(18:1)4 (1′,3′-bis[1,2-dioleyl-sn-glycero-3-phospho]-glycerol), 3% DOPS (1,2-dioleoyl-sn-glycero-3-phospho-L-serine), 5% soy-PI (L-α-phosphatidylinositol), and 0.2% rhodamine-PE (1,2-dioleoyl-sn-glycero-3-phosphoethanolamine-N-(lissamine rhodamine B sulfonyl)) in chloroform, followed by the evaporation of chloroform by a stream of nitrogen gas and drying in a vacuum chamber (Binder) for 1 h. […] Concentration of PARL was determined by absorption at 280 nm.
The PARL activity assay in vitro was carried out in 5 mM Tris, 5 mM Mg(OAc)2, 25 μM Zn(OAc)2, 0.1 μg/μL BSA, 30% DMSO, pH 8.0 using PARL in liposomes at 0.05 mg/mL. Compound 3 and 4 were used at 5 μM final concentration based on quantitative amino acid analysis. […] The cleavage reaction was carried out at 37 °C in 96-well black HTS plates (Greiner Bio-One) in a plate reader (Tecan Infinite M1000) with excitation and emission wavelengths set to 355 and 450 nm, respectively. Data were evaluated using Excel (Microsoft) and GraphPad Prism 9 (GraphPad Software, Inc.).

PARL [4] = biological target: T1, PARL; experiment: PARL inhibition assay in cells: cleavage of overexpressed PGAM5-Myc by tetracycline-induced PARL-FLAG, immunoblot; format: cell-based; parameters: expressed in transfected cells; host or cells: Flp-In HEK293 T-REx PARL knockout cells; settings: Flp-In HEK293 T-REx PARL KO cells with inducible PARL-FLAG, PGAM5-Myc, mean ± SEM of four or three experiments; read-out: Apparent IC50, PGAM5 cleavage by overexpressed PARL
Protocol: PARL inhibition assays in cells were carried out in Flp-In HEK293 T-REx PARL knockout cells stably transfected with tetracycline inducible PARL-FLAG grown in DMEM (Gibco) supplemented with 10% (v/v) tetracycline-free fetal bovine serum (Clontech). For the inhibition assay, 0.7 × 10^6 cells were seeded per well of a 6-well plate, and the next day transfected with 5 μg of human PGAM5-Myc in pcDNA and 15 μg of branched polyethylenimine (Polysciences) per well. Four hours after transfection, the PARL expression was induced by adding tetracycline to 1 μg/mL. Eight hours after transfection, the inhibitors were added to each well in different concentrations in serum-free DMEM with 1% DMSO.
For immunoblot analysis of the effects of PARL inhibitors on PGAM5 cleavage, after overnight incubation with inhibitors, cells from each well were harvested in 1× SDS sample buffer containing 20 mM MgCl2 and Pierce universal nuclease (250 U/mL, Thermo Scientific) and heated to 65 °C for 10 min. Loading volumes for SDS-PAGE were adjusted by measuring total protein concentration in the lysates with Pierce 660 nm Protein Assay Reagent and Ionic Detergent Compatibility Reagent for Pierce 660 nm Protein Assay Reagent (Thermo Scientific). Samples were resolved by SDS-PAGE using a 12% polyacrylamide gel (Biorad) and electrotransferred onto an Immobilon PVDF membrane (Merck Millipore). Blots were blocked using casein blocker (Thermo Scientific) and hPGAM5 was labeled by rabbit anti-Myc antibody (Cell Signaling Technology, cat. #2278, dilution 1:1000) at 4 °C overnight. Blots were washed three times with TBS-T and incubated with IRDye 800 CW donkey anti-rabbit antibody (Invitrogen, cat. #SA5-10044, dilution 1:10,000) at room temperature for 2 h. Membranes were then again washed three times with TBS-T and one time with TBS. Fluorescence emission at […] of dried membranes was scanned on Odyssey CLx (LI-COR). Cleavage efficiency and inhibition were analyzed as described[23] using Image Studio Lite (LI-COR), Excel (Microsoft) and GraphPad Prism 9 (GraphPad Software, Inc.).

PARL [5] = biological target: T1, PARL; experiment: PARL inhibition in vitro, PARL in liposomes with substrate compound 4; format: biochemical; parameters: hexahistidine tag (C); made in house; host or cells: continuous-exchange cell-free expression in bacterial lysates with T7 polymerase (CUBE biotech), into liposomes; settings: recombinant mature PARL in liposomes, 100 μM substrate compound 4, mean ± SEM of three or four measurements
Protocol: Liposome preparation and cell-free protein expression of PARL were carried out essentially as described previously.[27] Liposomes resembling the lipid composition of the IMM were prepared by mixing 40% DOPC (1,2-dioleoyl-sn-glycero-3-phosphocholine), 33.8% DOPE (1,2-dioleoyl-sn-glycero-3-phosphoethanolamine), 18% CL(18:1)4 (1′,3′-bis[1,2-dioleyl-sn-glycero-3-phospho]-glycerol), 3% DOPS (1,2-dioleoyl-sn-glycero-3-phospho-L-serine), 5% soy-PI (L-α-phosphatidylinositol), and 0.2% rhodamine-PE (1,2-dioleoyl-sn-glycero-3-phosphoethanolamine-N-(lissamine rhodamine B sulfonyl)) in chloroform, followed by the evaporation of chloroform by a stream of nitrogen gas and drying in a vacuum chamber (Binder) for 1 h. Dried lipids were dissolved in buffer (5 mM Tris/HCl, pH 8.5, 10 mM KOAc) and extruded 21 times through a mini extruder (Avanti Polar Lipids) using a polycarbonate membrane with a pore size of […]. […] The PARL-containing liposomes were purified by a step-wise sucrose step-gradient centrifugation (0, 15, 30, and 40% sucrose in 5 mM HEPES pH 7.5 with 25 mM NaCl) for 2 h at 200,000 × g. Soluble proteoliposomes were harvested at the 0%/15% sucrose interface after the centrifugation. Concentration of PARL was determined by absorption at 280 nm.
PARL inhibition in vitro was measured in 5 mM Tris, 5 mM Mg(OAc)2, 25 μM Zn(OAc)2, 0.1 μg/μL BSA, 10% DMSO, pH 8.0 using PARL in liposomes at 0.07 mg/mL and compound 4 at 100 μM final concentration. Inhibitor concentrations were determined by quantitative amino acid analysis. Inhibitors in DMSO were dissolved at the respective concentrations into the reaction buffer by vigorous mixing at 1000 rpm, 37 °C for 40 min and then pre-incubated with PARL in liposomes at 37° for 1 h. The cleavage reaction was started by adding compound 4 and carried out at 37 °C in 96-well black HTS plates (Greiner Bio-One). Fluorescence was read in a plate reader (Tecan Infinite M1000) with excitation and emission wavelengths set to 355 and 450 nm, respectively. Data were evaluated using Excel (Microsoft) and GraphPad Prism 9 (GraphPad Software, Inc.). The data shown are representative of at least three independent experiments.

SMILES: CCCCCC[C@H]1C(=O)O[C@H](C)[C@H](NC(=O)c2cccc(NC=O)c2O)C(=O)O[C@@H](C)[C@@H]1OC(=O)CC(C)C [Antimycin A]
- Parkin recruitment to the mitochondrial fraction (Parkin [1]): activates the PINK1/Parkin pathway
- Recruitment of Parkin-mEGFP to mitochondria (microscopy) (Parkin [2]): not significantly different from Parkin recruitment under DMSO conditions

SMILES: CC(=O)N[C@@H](C)C(=O)N[C@H](C(=O)N[C@@H](Cc1ccccc1)C(=O)N[C@@H](CC(C)C)C(=O)N[C@@H](C)C(=O)Nc1ccc2c(C)cc(=O)oc2c1)C(C)C [compound 3, AcAVFLA-4mc] (Ac-AVFLA-{AMC})
- Cleavage of substrate by liposome-embedded PARL (PARL [3]): are cleaved by liposome-embedded PARL but not its catalytic mutant

SMILES: CC(=O)N[C@@H](CCCNC(=N)N)C(=O)N[C@@H](CCCNC(=N)N)C(=O)N[C@@H](C)C(=O)N[C@H](C(=O)N[C@@H](Cc1ccccc1)C(=O)N[C@@H](CC(C)C)C(=O)N[C@@H](C)C(=O)C(=O)NCCCCc1ccccc1)C(C)C [compound 6] (Ac-RRAVFL[X1]-{NH(4-phenylbutyl)})
- pIC50 (PARL [4]): 5.49
- pIC50 (PARL [5]): 7.10

SMILES: CC[C@H](C)[C@H](NC(=O)[C@H](CCCCN)NC(=O)[C@H](Cc1ccccc1)NC(=O)[C@H](CCCNC(=N)N)NC(=O)[C@H](CCCNC(=N)N)NC(C)=O)C(=O)N[C@@H](Cc1ccccc1)C(=O)C(=O)NCCCCc1ccccc1 [compound 7] (Ac-RRFKI[X2]-{NH(4-phenylbutyl)})
- pIC50 (PARL [5]): 5.98
